The source of these data is publication PMC6627609, “Targeting Quorum Sensing: High-Throughput Screening to Identify Novel LsrK Inhibitors” (International Journal of Molecular Sciences, 2019).

Molecules are shown by their SMILES. Counter-ions that a name gives are not always drawn.

As a reminder, the inhibition is the change of the read-out against control, counted positive when it falls. For orientation: IC50 means the concentration that inhibits the measured activity by half. Low values mean inhibition by little substance, high ones a need for much substance.

The first experiment deals with LsrK (Salmonella typhimurium, UniProt Q8ZKQ6). Briefly: biochemical. In kind it is biochemical, S. typhimurium.
Chain of LsrK (Q8ZKQ6 whole entry): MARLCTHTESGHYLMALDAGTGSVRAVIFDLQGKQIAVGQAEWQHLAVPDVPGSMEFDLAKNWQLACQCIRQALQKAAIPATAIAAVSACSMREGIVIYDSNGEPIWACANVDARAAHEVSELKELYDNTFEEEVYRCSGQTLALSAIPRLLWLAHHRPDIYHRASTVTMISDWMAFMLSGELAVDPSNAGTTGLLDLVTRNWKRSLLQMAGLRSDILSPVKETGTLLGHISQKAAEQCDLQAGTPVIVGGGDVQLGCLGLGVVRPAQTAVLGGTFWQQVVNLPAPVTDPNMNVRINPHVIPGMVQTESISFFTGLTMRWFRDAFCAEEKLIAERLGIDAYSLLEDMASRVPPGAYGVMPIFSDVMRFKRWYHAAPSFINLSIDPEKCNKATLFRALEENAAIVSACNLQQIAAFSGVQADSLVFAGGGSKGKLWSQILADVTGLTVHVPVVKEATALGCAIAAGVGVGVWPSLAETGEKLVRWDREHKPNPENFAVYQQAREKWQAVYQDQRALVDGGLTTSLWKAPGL
Details: not given
In the case of `CC(C)CCC[C@@H](C)[C@H]1CC[C@H]2[C@@H]3CC(=O)[C@H]4C[C@@H](O)CC[C@]4(C)[C@H]3CC[C@]12C` [5alpha-CHOLESTAN-3beta-OL-6-ONE], the inhibition at 50 µM came to 1%.
Take `CC(=O)O[C@H]1C[C@@H](OC(C)=O)C(C)(C)[C@@H]2CC(=O)[C@]3(C)[C@H](CC[C@@]4(C)[C@H](c5ccoc5)OC(=O)[C@H]5O[C@]543)[C@@]12C` [7-DEACETOXY-7-OXOKHIVORIN]: half-maximal inhibition (IC50) required 3 µM and the inhibition at 50 µM was found to be 133%.
The matching figures for `O=C(O)c1cc(O)c(=O)c2c(O)c(O)ccc2c1` [7-DESHYDROXYPYROGALLIN-4-CARBOXYLIC ACID]: 7 µM and 107%.
For `O=[N+]([O-])c1cccc2cn[nH]c12` [7-NITROINDAZOLE], the inhibition at 50 µM came to 1%.
Same read-out and setting: to `CC[C@@]1(O)C(=O)OCc2c1cc1n(c2=O)Cc2cc3cc(O)ccc3nc2-1` [10-HYDROXYCAMPTOTHECIN] belongs 1%; to `COc1ccc2c(c1)OC1(O)COc3cc(OC)c(OC)cc3C1=C2` (stereo not shown) [12a-HYDROXY-5-DEOXYDEHYDROMUNDUSERONE], 0%; to `COc1cc2c(cc1OC)C1(O)C(=O)c3ccc(O)c(C(=O)O)c3OC1CO2` (stereo not shown) [12a-HYDROXY-9-DEMETHYLMUNDUSERONE-8-CARBOXYLIC ACID], 3%.
On to `COc1ccc(-c2cc(=O)c3c(OC(C)=O)cc(OC(C)=O)cc3o2)cc1` [ACACETIN DIACETATE], for which the inhibition at 50 µM amounted to 0%.
For the compound `NC(=O)c1ncn([C@@H]2O[C@H](CO)[C@@H](O)[C@H]2O)c1N` [ACADESINE], the inhibition at 50 µM is 0%.
Same read-out and setting: with `CCCC(=O)Nc1ccc(OCC(O)CNC(C)C)c(C(C)=O)c1` (stereo not shown) [ACEBUTOLOL HYDROCHLORIDE] the figure was 0%; with `CC(=O)Nc1ccccc1` [ACETANILIDE], 1%; with `COc1cc(C(C)=O)cc(OC)c1O` [ACETOSYRINGONE], 8%.
Turning to `CC(=O)Oc1c2c(c(CC=C(C)C)c3c1C(=O)C1=C[C@@H]4CC5C(C)(C)OC(C/C=C(\C)C(=O)O)(C4=O)[C@@]15O3)OC(C)(CCC=C(C)C)C=C2` (stereo partly shown) [ACETYL I[…]], half-maximal inhibition (IC50) required 4 µM and the inhibition at 50 µM came to 141%.
As for `CC(=O)N[C@@H](CC(C)C)C(=O)O` [ACETYL-L-LEUCINE], the inhibition at 50 µM turned out to be 0%.
Same read-out and setting: with `CC(=O)N[C@@H](Cc1c[nH]c2ccccc12)C(N)=O` [ACETYLTRYPTOPHANAMIDE] the figure was 1%.
Same read-out and setting: with `CC(=O)N[C@@H](Cc1c[nH]c2ccccc12)C(=O)O` [ACETYLTRYPTOPHAN] the figure was 6%; with `O=C(O)/C=C(\CC(=O)O)C(=O)O` [ACONITIC ACID], 1%.
Still for that read-out and setting: with `CCN1C[C@]2(COC)[C@H](O)C[C@H](OC)[C@@]34[C@@H]5C[C@@]6(O)[C@H](OC(=O)c7ccccc7)[C@@H]5[C@@](OC(C)=O)([C@@H]([C@H](OC)[C@H]23)[C@@H]14)[C@@H](O)[C@@H]6OC` [ACONITINE] the figure was 1%.
On to `Nc1nc2c(ncn2COCCO)c(=O)[nH]1` [ACYCLOVIR], for which the inhibition at 50 µM is 8%.
Same read-out and setting: to `Nc1ncnc2[nH]cnc12` [ADENINE] belongs 1%; to `CCN(CC)CCOC(=O)C(c1ccccc1)c1ccccc1` [ADIPHENINE HYDROCHLORIDE], 0%; to `NCCCCN=C(N)N` [AGMATINE SULFATE], 0%.
On the same count and under the same terms, to `CC[C@H]1[C@@H]2C[C@H]3[C@@H]4N(C)c5ccccc5[C@]45C[C@@H]([C@H]2[C@H]5O)N3[C@@H]1O` [AJMALINE] belongs 0%; to `CC(N)C(=O)OC(C)(C)Cc1ccc(Cl)cc1` (stereo not shown) [ALAPROCLATE], 1%; to `CCCSc1ccc2nc(NC(=O)OC)[nH]c2c1` [ALBENDAZOLE], 4%.
On to `CCCCC(CC)CNC(=N)NC(=N)NCCCCCCNC(=N)NC(=N)NCC(CC)CCCC` (stereo not shown) [ALEXIDINE HYDROCHLORIDE], for which the inhibition at 50 µM turned out to be 146%.
Still for that read-out and setting: to `COCCCOc1cc(C[C@@H](C[C@H](N)[C@@H](O)C[C@H](C(=O)NCC(C)(C)C(N)=O)C(C)C)C(C)C)ccc1OC` [ALISKIREN HEMIFUMARATE] belongs 0%.
The same measure, in the same setting: with `O=C1NC(=O)C(=O)C(=O)N1` [ALLOXAN] the figure was 18%.
With `O=C1c2c(O)cccc2C([C@@H]2O[C@H](CO)[C@@H](O)[C@H](O)[C@H]2O)c2cc(CO)cc(O)c21` (stereo partly shown) [ALOIN], the inhibition at 50 µM came out at 45%.
The same measure, in the same setting: with `C=CCc1ccccc1OCC(O)CNC(C)C` (stereo not shown) [ALPRENOLOL] the figure was 0%.
Take `C=CCSCC1Nc2cc(Cl)c(S(N)(=O)=O)cc2S(=O)(=O)N1` (stereo not shown) [ALTHIAZIDE]: the inhibition at 50 µM amounted to 2%.
Same read-out and setting: with `C=CC[C@]1(O)CC[C@H]2[C@@H]3CCC4=CC(=O)CCC4=C3C=C[C@@]21C` [ALTRENOGEST] the figure was 0%; with `CN(C)c1nc(N(C)C)nc(N(C)C)n1` [ALTRETAMINE], 19%; with `CCN(CCCc1ccccc1)CCCc1ccccc1` [ALVERINE CITRATE], 1%.
Regarding `CC(=O)OCC(=O)[C@@]12OC3(CCCC3)O[C@@H]1C[C@H]1[C@@H]3CCC4=CC(=O)C=C[C@]4(C)[C@@]3(F)[C@@H](O)C[C@@]12C` [AMCINONIDE], the inhibition at 50 µM was 1%.
Same read-out and setting: with `NCCCNCCSP(=O)(O)O` [AMIFOSTINE] the figure was 3%; with `N=C(N)NC(=O)c1nc(Cl)c(N)nc1N` [AMILORIDE HYDROCHLORIDE], 1%.
For the compound `NC1(C(=O)O)CC1` [AMINOCYCLOPROPANECARBOXYLIC ACID], the inhibition at 50 µM worked out at 1%.
The same measure, in the same setting: to `Nc1ccc(C(=O)NCC(=O)O)cc1` [AMINOHIPPURIC ACID] belongs 1%; to `Nc1ccc(C(=O)O)c(O)c1` [AMINOSALICYLATE SODIUM], 1%; to `CN(C)CCCO[C@@H]1[C@H]2OC(C)(C)O[C@H]2O[C@@H]1[C@H](O)CO` [AMIPRILOSE], 2%.
On the same count and under the same terms, to `Cc1ccc(/N=C/N(C)/C=N/c2ccc(C)cc2C)c(C)c1` [AMITRAZ] belongs 1%.
Same read-out and setting: to `C[C@@H]1[C@H](O)[C@@H](C)/C=C/C=C/C=C/C=C/C=C/C=C/C=C/[C@H](O[C@@H]2O[C@H](C)[C@@H](O)[C@H](N)[C@@H]2O)C[C@@H]2O[C@](O)(C[C@@H](O)C[C@@H](O)[C@H](O)CC[C@@H](O)C[C@@H](O)CC(=O)O[C@H]1C)C[C@H](O)[C@H]2C(=O)O` [AMPHOTERICIN B] belongs 61%; to `CC1(C)S[C@@H]2[C@H](NC(=O)[C@H](N)c3ccccc3)C(=O)N2[C@H]1C(=O)O` [AMPICILLIN SODIUM], 1%; to `COc1cc(NS(C)(=O)=O)ccc1Nc1c2ccccc2nc2ccccc12` [AMSACRINE], 1%.
`CN1CCCCC1c1ccc(-c2cccnc2)nc1` (stereo not shown) [ANABASAMINE HYDROCHLORIDE]: the inhibition at 50 µM was 2%.
With `c1cncc([C@@H]2CCCCN2)c1` [ANABASINE HYDROCHLORIDE], the inhibition at 50 µM turned out to be 2%.
Take `N=c1ccn2c(n1)O[C@H]1[C@H](O)[C@@H](CO)O[C@H]12` [ANCITABINE HYDROCHLORIDE]: the inhibition at 50 µM was 2%.

Staying with this experiment, now noted: 50 µM.
In the case of `COc1ccc2[nH]c3c(c2c1)CCN=C3C` [6-METHOXYHARMALAN], the “Inhibition (%)” value was 2.
With `COc1ccc2oc(-c3ccccc3OC)cc(=O)c2c1` [6.2'-DIMETHOXYFLAVONE], the “Inhibition (%)” value is reported as 1.
Take `O=c1cc(-c2ccc(O)cc2)oc2ccc(O)cc12` [6.4'-DIHYDROXYFLAVONE]: the “Inhibition (%)” value is on record as 0.
Same read-out and setting: with `COc1ccc(-c2cc(=O)c3cc(OC)ccc3o2)cc1` [6.4'-DIMETHOXYFLAVONE] the figure was 2.
Same read-out and setting: to `O=C(O)c1nc2cc(Cl)c(Cl)cc2nc1O` [6.7-DICHLORO-3-HYDROXY-2-QUINOXALINECARBOXYLIC ACID] belongs 1; to `CC(=O)OCC1=C(C(=O)O)N2C(=O)[C@@H](N)[C@H]2SC1` [7-AMINOCEPHALOSPORANIC ACID], 64; to `CC(=O)O[C@H]1C[C@@H](OC(C)=O)C(C)(C)C2C[C@@H](O)[C@]3(C)C(CC[C@@]4(C)[C@H](c5ccoc5)OC(=O)[C@H]5O[C@]543)[C@]21C` (stereo partly shown) [7-DEACETYLKHIVORIN], 0.
Same read-out and setting: to `CC1(C)C(=O)C=C[C@]2(C)[C@H]3CC[C@@]4(C)[C@H](c5ccoc5)OC(=O)[C@H]5O[C@]54[C@]3(C)C=C[C@@H]12` [7-DESACETOXY-6.7-DEHYDROGEDUNIN] belongs 33; to `O=c1cc(-c2ccccc2O)oc2cc(O)ccc12` [7.2'-DIHYDROXYFLAVONE], 76; to `O=c1cc(-c2ccc(O)cc2)oc2cc(O)ccc12` [7.4'-DIHYDROXYFLAVONE], 1.
Turning to `COc1ccc(-c2coc3cc(OC)ccc3c2=O)cc1` [7.4'-DIMETHOXYISOFLAVONE], the “Inhibition (%)” value is 1.
On the same count and under the same terms, to `O=c1cc(-c2ccccc2)oc2c(O)c(O)ccc12` [7.8-DIHYDROXYFLAVONE] belongs 5.
The same measure, in the same setting: with `COC(=O)C[C@H]1C(C)(C)C2(O)OC34CC2C(=O)[C@]1(C)C3CC[C@]1(C)C4=CC(=O)O[C@H]1c1ccoc1` (stereo partly drawn) [8beta-HYDROXYCARAPIN. 3.8-HEMIACETAL] the figure was 0; with `CC(=O)O[C@@H]1C[C@]2(C)[C@@H](C(C)=O)CC[C@H]2[C@@H]2CCC3=CC(=O)CC[C@]3(C)[C@H]21` [11a-ACETOXYPROGESTERONE], 23.
Same read-out and setting: to `CC(C)c1ccc2c(c1)CCC1[C@](C)(CN)CCC[C@]21C.O=S(=O)(O)O` (stereo partly shown) [18-AMINOABIETA-8.11.13-TRIENE SULFATE] belongs 1; to `CNC[C@H](O)c1ccc(O)c(O)c1.O=C(O)C(O)C(O)C(=O)O` [ADRENALINE BITARTRATE], 15.
As to `O=c1ccc2cc(O[C@@H]3O[C@H](CO)[C@@H](O)[C@H](O)[C@H]3O)c(O)cc2o1` [AESCULIN], the “Inhibition (%)” value was 1.
Take `O=C(O)CCCCCCCC(O)C(O)CCCCCCO` (stereo not shown) [ALEURETIC ACID]: the “Inhibition (%)” value was found to be 0.
The same measure, in the same setting: to `COc1cc2nc(N(C)CCCNC(=O)C3CCCO3)nc(N)c2cc1OC` (stereo not shown) [ALFLUZOSIN] belongs 1.
